Data published in patent publication US9693556B2, “Herbicidal pyridazinone derivatives” (SYNGENTA LIMITED, priority 2011, dated 2017).

What was measured:
Type in all cases: in vivo
[1] = tested on: Alopecurus myosuroides (ALOMY); assay: Pre-emergence herbicidal glasshouse test on Alopecurus myosuroides; conditions: pre-emergence, 1000 g/h, evaluated after 13 days
How it was run: (§1)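 Scoring scale: 5=80-100%, 4=60-79%, 3=40-59%, 2=20-39%, 1=0-19% damage, assessed on day 13. Compound sprayed at 1000 g/h on soil-grown plants (day 1 pre-, day 8 post-emergence) kept at 24/16 °C, 14 h light.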

Setaria faberi (SETFA) [2] = assay: Pre-emergence herbicidal glasshouse test on Setaria faberi; conditions: pre-emergence, 1000 g/h, evaluated after 13 days
How it was run: as §1

[3] = tested on: Echinochloa crus-galli (ECHCG); assay: Pre-emergence herbicidal glasshouse test on Echinochloa crus-galli; conditions: pre-emergence, 1000 g/h, evaluated after 13 days
How it was run: as §1

Solanum nigrum (SOLNI) [4] = assay: Pre-emergence herbicidal glasshouse test on Solanum nigrum; conditions: pre-emergence, 1000 g/h, evaluated after 13 days
How it was run: as §1

[5] = tested on: Amaranthus retoflexus (AMARE); assay: Pre-emergence herbicidal glasshouse test on Amaranthus retoflexus; conditions: pre-emergence, 1000 g/h, evaluated after 13 days
How it was run: as §1

[6] = tested on: Ipomoea hederacea (IPOHE); assay: Pre-emergence herbicidal glasshouse test on Ipomoea hederacea; conditions: pre-emergence, 1000 g/h, evaluated after 13 days
How it was run: as §1

[7] = tested on: Alopecurus myosuroides (ALOMY); assay: Post-emergence herbicidal glasshouse test on Alopecurus myosuroides; conditions: post-emergence, 1000 g/h, evaluated after 13 days
How it was run: as §1

Setaria faberi (SETFA) [8] = assay: Post-emergence herbicidal glasshouse test on Setaria faberi; conditions: post-emergence, 1000 g/h, evaluated after 13 days
How it was run: as §1

[9] = tested on: Echinochloa crus-galli (ECHCG); assay: Post-emergence herbicidal glasshouse test on Echinochloa crus-galli; conditions: post-emergence, 1000 g/h, evaluated after 13 days
How it was run: as §1

Solanum nigrum (SOLNI) [10] = assay: Post-emergence herbicidal glasshouse test on Solanum nigrum; conditions: post-emergence, 1000 g/h, evaluated after 13 days
How it was run: as §1

[11] = tested on: Amaranthus retoflexus (AMARE); assay: Post-emergence herbicidal glasshouse test on Amaranthus retoflexus; conditions: post-emergence, 1000 g/h, evaluated after 13 days
How it was run: as §1

[12] = tested on: Ipomoea hederacea (IPOHE); assay: Post-emergence herbicidal glasshouse test on Ipomoea hederacea; conditions: post-emergence, 1000 g/h, evaluated after 13 days
How it was run: as §1

SMILES | PRE Application ALOMY herbicidal damage (five point scale) [1] | PRE Application SETFA herbicidal damage (five point scale) (Setaria faberi (SETFA) [2]) | PRE Application ECHCG herbicidal damage (five point scale) [3] | PRE Application SOLNI herbicidal damage (five point scale) (Solanum nigrum (SOLNI) [4]) | PRE Application AMARE herbicidal damage (five point scale) [5] | PRE Application IPOHE herbicidal damage (five point scale) [6] | POST Application ALOMY herbicidal damage (five point scale) [7] | POST Application SETFA herbicidal damage (five point scale) (Setaria faberi (SETFA) [8]) | POST Application ECHCG herbicidal damage (five point scale) [9] | POST Application SOLNI herbicidal damage (five point scale) (Solanum nigrum (SOLNI) [10]) | POST Application AMARE herbicidal damage (five point scale) [11] | POST Application IPOHE herbicidal damage (five point scale) [12] | further results
CCCn1ncc(-c2ccc(S(C)(=O)=O)c(C3=NOCC3)c2Cl)c(O)c1=O [Compound 1.125, 5-[2-chloro-3-(4,5-dihydroisoxazol-3-yl)-4-methylsulfonyl-phenyl]-4-hydroxy-2-propyl-pyridazin-3-one] | 4 (4=60-79% damage) | 5 (5=80-100% damage) | 5 (5=80-100% damage) | 4 (4=60-79% damage) | 5 (5=80-100% damage) | 1 (1=0-19% damage) | 5 (5=80-100% damage) | 5 (5=80-100% damage) | 5 (5=80-100% damage) | 5 (5=80-100% damage) | 5 (5=80-100% damage) | 5 (5=80-100% damage) | 
Cn1ncc(-c2ccc(C(F)(F)F)nc2C#N)c(O)c1=O [Compound 4.015] | 1 (1=0-19% damage) | 1 (1=0-19% damage) | 1 (1=0-19% damage) | 1 (1=0-19% damage) | 1 (1=0-19% damage) | 1 (1=0-19% damage) | 1 (1=0-19% damage) | 1 (1=0-19% damage) | 1 (1=0-19% damage) | 1 (1=0-19% damage) | 1 (1=0-19% damage) | 1 (1=0-19% damage) | 
COCn1ncc(-c2ccc(F)cc2S(C)(=O)=O)c(O)c1=O [Compound 2.006] | 5 (5=80-100% damage) | 5 (5=80-100% damage) | 5 (5=80-100% damage) | 5 (5=80-100% damage) | 5 (5=80-100% damage) | 5 (5=80-100% damage) | 5 (5=80-100% damage) | 5 (5=80-100% damage) | 5 (5=80-100% damage) | 5 (5=80-100% damage) | 5 (5=80-100% damage) | 5 (5=80-100% damage) | 
Cn1ncc(-c2ccc(S(C)(=O)=O)c(COCC(F)(F)F)c2Cl)c(O)c1=O [Compound 1.049] | 2 (2=20-39% damage) | 3 (3=40-59% damage) | 5 (5=80-100% damage) | 5 (5=80-100% damage) | 5 (5=80-100% damage) | 1 (1=0-19% damage) | 5 (5=80-100% damage) | 5 (5=80-100% damage) | 5 (5=80-100% damage) | 5 (5=80-100% damage) | 5 (5=80-100% damage) | 5 (5=80-100% damage) | 
Cn1ncc(-c2c(S(C)(=O)=O)ccc(Br)c2Br)c(O)c1=O [Compound 1.161] |  |  |  |  |  |  |  |  |  |  |  |  | herbicidal damage, PRE Application ALOMY ([1]; five point scale): 1 (1=0-19% damage); herbicidal damage, PRE Application SETFA (Setaria faberi (SETFA) [2]; five point scale): 1 (1=0-19% damage); herbicidal damage, PRE Application ECHCG ([3]; five point scale): 1 (1=0-19% damage); herbicidal damage, PRE Application SOLNI (Solanum nigrum (SOLNI) [4]; five point scale): 1 (1=0-19% damage); herbicidal damage, PRE Application AMARE ([5]; five point scale): 3 (3=40-59% damage); herbicidal damage, PRE Application IPOHE ([6]; five point scale): 1 (1=0-19% damage); herbicidal damage, POST Application ALOMY ([7]; five point scale): 3 (3=40-59% damage); herbicidal damage, POST Application SETFA (Setaria faberi (SETFA) [8]; five point scale): 4 (4=60-79% damage); herbicidal damage, POST Application ECHCG ([9]; five point scale): 4 (4=60-79% damage); herbicidal damage, POST Application SOLNI (Solanum nigrum (SOLNI) [10]; five point scale): 4 (4=60-79% damage); herbicidal damage, POST Application AMARE ([11]; five point scale): 5 (5=80-100% damage); herbicidal damage, POST Application IPOHE ([12]; five point scale): 2 (2=20-39% damage)
Cn1ncc(-c2cccn(-c3cccc(Cl)c3)c2=O)c(O)c1=O [Compound 1.143] | 2 (2=20-39% damage) | 1 (1=0-19% damage) | 1 (1=0-19% damage) | 1 (1=0-19% damage) | 3 (3=40-59% damage) | 1 (1=0-19% damage) | 2 (2=20-39% damage) | 1 (1=0-19% damage) | 2 (2=20-39% damage) | 4 (4=60-79% damage) | 1 (1=0-19% damage) | 1 (1=0-19% damage) | 
Cn1ncc(-c2cc3cc(F)cnc3n(-c3ccsc3)c2=O)c(O)c1=O [Compound 1.074] | 2 (2=20-39% damage) | 1 (1=0-19% damage) | 4 (4=60-79% damage) | 1 (1=0-19% damage) | 5 (5=80-100% damage) | 1 (1=0-19% damage) | 2 (2=20-39% damage) | 5 (5=80-100% damage) | 5 (5=80-100% damage) | 5 (5=80-100% damage) | 5 (5=80-100% damage) | 5 (5=80-100% damage) | 
Cc1ccc(S(=O)(=O)Oc2c(-c3ccc(C(F)(F)F)cc3S(C)(=O)=O)cnn(C)c2=O)cc1 [Compound 3.006, [2-methyl-5-[2-methylsulfonyl-4-(trifluoromethyl)phenyl]-3-oxo-pyridazin-4-yl]4-methylbenzenesulfonate] | 5 (5=80-100% damage) | 5 (5=80-100% damage) | 5 (5=80-100% damage) | 5 (5=80-100% damage) | 5 (5=80-100% damage) | 4 (4=60-79% damage) | 5 (5=80-100% damage) | 5 (5=80-100% damage) | 5 (5=80-100% damage) | 5 (5=80-100% damage) | 5 (5=80-100% damage) | 5 (5=80-100% damage) | 
